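Protocol summary: plate cells (96-well), add compound at 5 concentrations, incubate 48 h, interpolate endpoints linearly. Here, GI50 denotes the concentration required for 50% inhibition of growth. Definition used: TGI = concentration required for complete inhibition of growth.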
Assays:
Test in all cases: inhibition of tumour cell growth, NCI panel, 48 h
786-0 renal = system: 786-0 renal
A498 renal = system: A498 renal
A549 NSCLC = system: A549 NSCLC
ACHN renal = system: ACHN renal
BT-549 breast = system: BT-549 breast
CAKI-1 renal = system: CAKI-1 renal
CCRF-CEM leukemia = system: CCRF-CEM leukemia
COLO 205 colon = system: COLO 205 colon
DU-145 prostate = system: DU-145 prostate
EKVX NSCLC = system: EKVX NSCLC
HCC-2998 colon = system: HCC-2998 colon
HCT-116 colon = system: HCT-116 colon
HCT-15 colon = system: HCT-15 colon
HL-60(TB) leukemia = system: HL-60(TB) leukemia
HOP-62 NSCLC = system: HOP-62 NSCLC
HOP-92 NSCLC = system: HOP-92 NSCLC
HS 578T breast = system: HS 578T breast
HT29 colon = system: HT29 colon
IGROV1 ovarian = system: IGROV1 ovarian
K-562 leukemia = system: K-562 leukemia
KM12 colon = system: KM12 colon
LOX IMVI melanoma = system: LOX IMVI melanoma
M14 melanoma = system: M14 melanoma
MALME-3M melanoma = system: MALME-3M melanoma
MCF7 breast = system: MCF7 breast
MDA-MB-231 breast = system: MDA-MB-231 breast
MDA-MB-435 = system: MDA-MB-435
MDA-MB-468 breast = system: MDA-MB-468 breast
MOLT-4 leukemia = system: MOLT-4 leukemia
NCI-H226 lung = system: NCI-H226 lung
NCI-H23 lung = system: NCI-H23 lung
NCI-H460 lung = system: NCI-H460 lung
NCI-H522 lung = system: NCI-H522 lung
NCI/ADR-RES ovarian = system: NCI/ADR-RES ovarian
OVCAR-3 ovarian = system: OVCAR-3 ovarian
OVCAR-4 ovarian = system: OVCAR-4 ovarian
OVCAR-5 ovarian = system: OVCAR-5 ovarian
OVCAR-8 ovarian = system: OVCAR-8 ovarian
PC-3 prostate = system: PC-3 prostate
RPMI-8226 leukemia = system: RPMI-8226 leukemia
RXF 393 renal = system: RXF 393 renal
SF-268 CNS = system: SF-268 CNS
SF-295 CNS = system: SF-295 CNS
SF-539 CNS = system: SF-539 CNS
SK-MEL-2 melanoma = system: SK-MEL-2 melanoma
SK-MEL-28 melanoma = system: SK-MEL-28 melanoma
SK-MEL-5 melanoma = system: SK-MEL-5 melanoma
SK-OV-3 ovarian = system: SK-OV-3 ovarian
SN12C renal = system: SN12C renal
SNB-19 CNS = system: SNB-19 CNS
SNB-75 CNS = system: SNB-75 CNS
SR leukemia = system: SR leukemia
SW-620 colon = system: SW-620 colon
T-47D breast = system: T-47D breast
TK-10 renal = system: TK-10 renal
U251 CNS = system: U251 CNS
UACC-257 melanoma = system: UACC-257 melanoma
UACC-62 melanoma = system: UACC-62 melanoma
UO-31 renal = system: UO-31 renal

C#C[C@]1(O)CC[C@H]2[C@@H]3CC=C4c5sc(Nc6ccc(C(F)(F)F)cn6)nc5CC[C@]4(C)[C@H]3CC[C@@]21C
GI50 (786-0 renal): 1.47 µM | TGI (786-0 renal): 3.45 µM | GI50 (A498 renal): 2.43 µM | TGI (A498 renal): 5.45 µM | GI50 (A549 NSCLC): 6.95 µM | TGI (A549 NSCLC): > 100 µM | GI50 (ACHN renal): 3.34 µM | TGI (ACHN renal): 24.2 µM | GI50 (BT-549 breast): 2.54 µM | TGI (BT-549 breast): 8.13 µM | GI50 (CAKI-1 renal): 1.92 µM | TGI (CAKI-1 renal): 5.62 µM | GI50 (CCRF-CEM leukemia): 2.76 µM | TGI (CCRF-CEM leukemia): > 100 µM | GI50 (COLO 205 colon): 2.75 µM | TGI (COLO 205 colon): 13.8 µM | GI50 (DU-145 prostate): 4.6 µM | TGI (DU-145 prostate): 22.5 µM | GI50 (EKVX NSCLC): 2.15 µM | TGI (EKVX NSCLC): 8.58 µM | GI50 (HCC-2998 colon): 4.82 µM | TGI (HCC-2998 colon): 18.3 µM | GI50 (HCT-116 colon): 3.22 µM | TGI (HCT-116 colon): 13.7 µM | GI50 (HCT-15 colon): 1.72 µM | TGI (HCT-15 colon): 4.96 µM | GI50 (HL-60(TB) leukemia): 2.67 µM | TGI (HL-60(TB) leukemia): 7.65 µM | GI50 (HOP-62 NSCLC): 2.32 µM | TGI (HOP-62 NSCLC): 11.3 µM | GI50 (HOP-92 NSCLC): 5.41 µM | TGI (HOP-92 NSCLC): 26.1 µM | GI50 (HS 578T breast): 1.45 µM | TGI (HS 578T breast): 5.27 µM | GI50 (HT29 colon): 3.85 µM | TGI (HT29 colon): 30.5 µM | GI50 (IGROV1 ovarian): 4.16 µM | TGI (IGROV1 ovarian): 21 µM | GI50 (K-562 leukemia): 2.73 µM | TGI (K-562 leukemia): > 100 µM | GI50 (KM12 colon): 4.49 µM | TGI (KM12 colon): 18.4 µM | GI50 (LOX IMVI melanoma): 1.84 µM | TGI (LOX IMVI melanoma): 4.25 µM | GI50 (M14 melanoma): 2.57 µM | TGI (M14 melanoma): 9.92 µM | GI50 (MALME-3M melanoma): 2.89 µM | TGI (MALME-3M melanoma): 14.1 µM | GI50 (MCF7 breast): 1.96 µM | TGI (MCF7 breast): 4.49 µM | GI50 (MDA-MB-231 breast): 1.88 µM | TGI (MDA-MB-231 breast): 4.44 µM | GI50 (MDA-MB-435): 3.04 µM | TGI (MDA-MB-435): 11.9 µM | GI50 (MDA-MB-468 breast): 3.16 µM | TGI (MDA-MB-468 breast): 18.9 µM | GI50 (MOLT-4 leukemia): 2.62 µM | TGI (MOLT-4 leukemia): 13.7 µM | GI50 (NCI-H226 lung): 3.91 µM | TGI (NCI-H226 lung): 19.9 µM | GI50 (NCI-H23 lung): 3.08 µM | TGI (NCI-H23 lung): 15.5 µM | GI50 (NCI-H460 lung): 2.86 µM | TGI (NCI-H460 lung): 10.6 µM | GI50 (NCI-H522 lung): 3.97 µM | TGI (NCI-H522 lung): 16.2 µM | GI50 (NCI/ADR-RES ovarian): 3.76 µM | TGI (NCI/ADR-RES ovarian): 46 µM | GI50 (OVCAR-3 ovarian): 4.68 µM | TGI (OVCAR-3 ovarian): 35.1 µM | GI50 (OVCAR-4 ovarian): 3.65 µM | TGI (OVCAR-4 ovarian): 31 µM | GI50 (OVCAR-5 ovarian): 4.48 µM | TGI (OVCAR-5 ovarian): 23.8 µM | GI50 (OVCAR-8 ovarian): 9.96 µM | TGI (OVCAR-8 ovarian): > 100 µM | GI50 (PC-3 prostate): 1.98 µM | TGI (PC-3 prostate): > 100 µM | GI50 (RPMI-8226 leukemia): 0.564 µM | TGI (RPMI-8226 leukemia): > 100 µM | GI50 (RXF 393 renal): 0.723 µM | TGI (RXF 393 renal): 2.54 µM | GI50 (SF-268 CNS): 4.04 µM | TGI (SF-268 CNS): 32.6 µM | GI50 (SF-295 CNS): 0.565 µM | TGI (SF-295 CNS): 2.07 µM | GI50 (SF-539 CNS): 0.89 µM | TGI (SF-539 CNS): 2.66 µM | GI50 (SK-MEL-2 melanoma): 2.91 µM | TGI (SK-MEL-2 melanoma): 10.6 µM | GI50 (SK-MEL-28 melanoma): 1.39 µM | TGI (SK-MEL-28 melanoma): 2.93 µM | GI50 (SK-MEL-5 melanoma): 2.09 µM | TGI (SK-MEL-5 melanoma): 4.8 µM | GI50 (SK-OV-3 ovarian): 2.83 µM | TGI (SK-OV-3 ovarian): 26.7 µM | GI50 (SN12C renal): 4.77 µM | TGI (SN12C renal): 19.2 µM | GI50 (SNB-19 CNS): 2.9 µM | TGI (SNB-19 CNS): 12.2 µM | GI50 (SNB-75 CNS): 1.27 µM | TGI (SNB-75 CNS): 12.7 µM | GI50 (SR leukemia): 2.47 µM | TGI (SR leukemia): 20.4 µM | GI50 (SW-620 colon): 2.04 µM | TGI (SW-620 colon): 5.03 µM | GI50 (T-47D breast): 3.58 µM | TGI (T-47D breast): 18.4 µM | GI50 (TK-10 renal): 6.83 µM | TGI (TK-10 renal): 91.2 µM | GI50 (U251 CNS): 1.72 µM | TGI (U251 CNS): 11.3 µM | GI50 (UACC-257 melanoma): 3.85 µM | TGI (UACC-257 melanoma): 18.4 µM | GI50 (UACC-62 melanoma): 1.95 µM | TGI (UACC-62 melanoma): 4.5 µM | GI50 (UO-31 renal): 3.09 µM | TGI (UO-31 renal): 13.7 µM

Source: PubChem BioAssay (NCI)
